This passage reports GI50 results from patent US12655150B2 (Cedilla Therapeutics, Inc., priority 2021, dated 2026).

Molecules are shown by their SMILES. A value given as a limit tells only on which side of the number the result lay.

In this test the test system is NCI-H226. Put plainly: 72H TEAD Proliferation Assay (Cell Titer Glo 2.0). The test is classed as cell-based. Particulars: Homo sapiens, NCI-H226, 72 h, CTG 2.0, cell line not given (NCI-H226 responsive, NCI-H28 non-responsive). The procedure, abridged:
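Growth read-out is ATP luminescence (CellTiter-Glo 2.0) after 72 h compound exposure, corrected for no-CTG background and day-0 values, with GI50 from nonlinear regression. Sensitive line NCI-H226 (NF2-deficient); non-responsive NCI-H28 (NF2 wild type) distinguishes TEAD-driven from nonspecific growth inhibition.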
For orientation: In ATP-based viability assays light output follows the ATP content of the culture.
Usually GI50 stands for the concentration giving 50% growth inhibition. In turn, `C[C@H](CO)NC(=O)c1ccc2c(C3CC3)cc(-c3ccc(C(F)(F)F)cc3)nc2c1` [I-386, (R)-4-cyclopropyl-N-(1-hydroxypropan-2-yl)-2-(4-(trifluoromethyl)phenyl)quinoline-7-carboxamide] returned a GI50 of at most 1000 nM. Take `CNC(=O)c1cn2ccnc2c(-c2ccc(C(C)(C)C)cc2)n1` [I-143, 8-(4-(tert-Butyl)phenyl)-N-methylimidazo[1,2-a]pyrazine-6-carboxamide]: the GI50 is over 10000 nM. For the compound `O=C(O)c1cc(CO)c2c(c1)nc(N1CCC3(CC1)CC3)c1cccn12` [I-278, 9-(hydroxymethyl)-4-(6-azaspiro[2.5]octan-6-yl)pyrrolo[1,2-a]quinoxaline-7-carboxylic acid], the GI50 is 1000 to 5000 nM.

In turn, `CN(CCC(F)(F)F)c1nc2cc(C(=O)O)ccc2n2cccc12` [I-126, 4-(Methyl(3,3,3-trifluoropropyl)amino)pyrrolo[1,2-a]quinoxaline-7-carboxylic acid] had a GI50 of over 10000 nM. `O=C(O)c1cc2nc(-c3ccc(C(F)(F)F)cc3)c3ccccc3n2c1` [I-421, 5-(4-(trifluoromethyl)phenyl)pyrrolo[1,2-a]quinazoline-2-carboxylic acid] came in with a GI50 of 1000 to 5000 nM. In turn, `O=C(O)c1ccc2c(c1)nc(N1CCC3(CC1)CC3)c1cccn12` [I-4, 4-(6-Azaspiro[2.5]octan-6-yl)pyrrolo[1,2-a]quinoxaline-7-carboxylic acid] registered a GI50 of at most 1000 nM. On to `C=CC(=O)NCc1nc(-c2ccc(C(C)(C)C)cc2)c2ccc(F)cc2n1` [I-446, N-((4-(4-(tert-butyl)phenyl)-7-fluoroquinazolin-2-yl)methyl)acrylamide], for which the GI50 was at most 1000 nM. For the compound `Cc1nc(-c2ccc(C(F)(F)F)cc2)nc2cc(C(=O)N[C@H](C)CO)ccc12` [I-436, (R)—N-(1-hydroxypropan-2-yl)-4-methyl-2-(4-(trifluoromethyl)phenyl)quinazoline-7-carboxamide], the GI50 is at most 1000 nM. `CC(C)(C)c1ccc(CCn2ccc3cc(C(=O)O)ccc32)cc1` [Compound I-161]: the GI50 is over 10000 nM. In turn, `COc1ccc(-c2nc3cc(C(=O)O)ccc3n3ccnc23)cc1` [I-64, 4-(4-Methoxyphenyl)imidazo[1,2-a]quinoxaline-7-carboxylic acid] gave a GI50 of over 10000 nM.

Compound `CC(C)(C)c1ccc(-c2nc3cc(-c4nnn[nH]4)ccc3n3ccnc23)cc1` [I-76, 4-(4-(tert-Butyl)phenyl)-7-(1H-tetrazol-5-yl)imidazo[1,2-a]quinoxaline] yielded a GI50 of over 10000 nM. Under `COC(=O)c1ccc2c(c1)nc(-c1ccc(C(C)(C)C)cc1)c1cccn12` [Compound I-164] stands over 10000 nM; under `N#CNCc1cn2ccnc2c(-c2ccc(C(F)(F)F)cc2)n1` [I-238, N-((8-(4-(Trifluoromethyl)phenyl)imidazo[1,2-a]pyrazin-6-yl)methyl)cyanamide], 1000 to 5000 nM; under `CC1CCN(c2nc3cc(C(=O)O)ccc3n3cccc23)CC1` [I-16, 4-(4-Methylpiperidin-1-yl)pyrrolo[1,2-a]quinoxaline-7-carboxylic acid], 1000 to 5000 nM.

In turn, `C=CC(=O)NCc1cn2cccc2c(-c2ccc(C(F)(F)F)cn2)n1` [I-314, N-((1-(5-(Trifluoromethyl)pyridin-2-yl)pyrrolo[1,2-a]pyrazin-3-yl)methyl)acrylamide] came in with a GI50 of at most 1000 nM.

Regarding `C=CC(=O)NCc1cn2c(C(F)(F)F)cnc2c(-c2ccc(C(F)(F)F)cc2)n1` [I-246, N-((3-(trifluoromethyl)-8-(4-(trifluoromethyl)phenyl)imidazo[1,2-a]pyrazin-6-yl)methyl)acrylamide], the GI50 is at most 1000 nM.

The compound `COc1cc(-c2ccc(C(F)(F)F)cc2F)nc2cc(C(=O)N[C@H](C)CO)ccc12` [I-337, (R)-2-(2-fluoro-4-(trifluoromethyl)phenyl)-N-(1-hydroxypropan-2-yl)-4-methoxyquinoline-7-carboxamide] came in with a GI50 of at most 1000 nM. For `C=CC(=O)NCc1cn2cc(C(F)(F)F)nc2c(-c2ccc(C(F)(F)F)cc2)n1` [I-247, N-((2-(trifluoromethyl)-8-(4-(trifluoromethyl)phenyl)imidazo[1,2-a]pyrazin-6-yl)methyl)acrylamide], the GI50 was at most 1000 nM. Compound `CC(C)(C)c1ccc(-c2nc3cc(C(=O)NS(C)(=O)=O)ccc3n3cccc23)cc1` [I-123, 4-(4-(tert-Butyl)phenyl)-N-(methylsulfonyl)pyrrolo[1,2-a]quinoxaline-7-carboxamide] yielded a GI50 of over 10000 nM. Under `C=CC(=O)Nc1ccc2cnc(-c3ccc(C)cc3)nc2c1` [I-81, N-(2-(p-Tolyl)quinazolin-7-yl)acrylamide] stands 1000 to 5000 nM; under `C=CC(=O)NCc1nc(-c2ccc(C(F)(F)F)cc2)c2c(ccn2C)n1` [I-451, N-((5-methyl-4-(4-(trifluoromethyl)phenyl)-5H-pyrrolo[3,2-d]pyrimidin-2-yl)methyl)acrylamide], at most 1000 nM. As to `O=C(O)c1ccc2c(c1)nc(OC1CCC(C(F)(F)F)CC1)c1cccn12` (mixture of isomers) [I-127, 4-((4-(Trifluoromethyl)cyclohexyl)oxy)pyrrolo[1,2-a]quinoxaline-7-carboxylic acid], the GI50 lay in the range of 1000 to 5000 nM.

`COc1cc(-c2ccc(C(F)(F)F)cc2)nc2cc(C(=O)NC(C)(C)CO)ccc12` [I-352, N-(1-hydroxy-2-methylpropan-2-yl)-4-methoxy-2-(4-(trifluoromethyl)phenyl)quinoline-7-carboxamide] yielded a GI50 of 1000 to 5000 nM.

For the compound `O=C(O)c1ccc2c(c1)nc(N1CCCC1)c1cccn12` [I-15, 4-(Pyrrolidin-1-yl)pyrrolo[1,2-a]quinoxaline-7-carboxylic acid], the concentration for 50% growth inhibition (GI50) was over 10000 nM. With `C=CC(=O)NCc1nc2ncccn2c1-c1ccc(C(F)(F)F)cc1` [I-410, N-((3-(4-(trifluoromethyl)phenyl)imidazo[1,2-a]pyrimidin-2-yl)methyl)acrylamide], the GI50 was at most 1000 nM. For the compound `FC(F)(F)c1ccc(-c2nc(C3CC(Br)=NO3)cn3ccnc23)cc1` (stereo not drawn) [I-176, 3-bromo-5-(8-(4-(trifluoromethyl)phenyl)imidazo[1,2-a]pyrazin-6-yl)-4,5-dihydroisoxazole], the GI50 was at most 1000 nM. For `C[C@H](CO)NC(=O)c1ccc2c(OC(F)F)cc(-c3ccc(C(F)(F)F)cc3)nc2c1` [I-330, (R)-4-(difluoromethoxy)-N-(1-hydroxypropan-2-yl)-2-(4-(trifluoromethyl)phenyl)quinoline-7-carboxamide], the GI50 is at most 1000 nM. Consider `O=C(O)c1ccc2c(c1)nc(-c1ccc(C(F)(F)F)cc1C(F)(F)F)c1cccn12` [I-199, 4-(2,4-bis(trifluoromethyl)phenyl)pyrrolo[1,2-a]quinoxaline-7-carboxylic acid], for which the GI50 was 1000 to 5000 nM. In turn, `C=CC(=O)Nc1ccc2c(c1)nc(-c1ccc(C(F)(F)F)cn1)c1nccn12` [I-312, N-(4-(5-(trifluoromethyl)pyridin-2-yl)imidazo[1,2-a]quinoxalin-7-yl)acrylamide] came in with a GI50 of at most 1000 nM.

The compound `CC(C)(C)c1ccc(-c2nc3cc(C(=O)O)ccc3n3ccnc23)cc1` [I-58, 4-(4-(tert-Butyl)phenyl)imidazo[1,2-a]quinoxaline-7-carboxylic acid] showed a GI50 of 5000 to 10000 nM. `COCC(C)OC(=O)N1CCc2c(cccc2-c2ccc(C(F)(F)F)cc2)C1` (stereo not drawn) [I-79, 1-Methoxypropan-2-yl 5-(4-(trifluoromethyl)phenyl)-3,4-dihydroisoquinoline-2(1H)-carboxylate]: the concentration for 50% growth inhibition (GI50) fell in the range of 1000 to 5000 nM.

In turn, `COCC(C)CC(=O)N1CCc2c(cccc2-c2ccc(C(F)(F)F)cc2)C1` (stereo not drawn) [I-137, 4-Methoxy-3-methyl-1-(5-(4-(trifluoromethyl)phenyl)-3,4-dihydroisoquinolin-2(1H)-yl)butan-1-one] gave a GI50 of 1000 to 5000 nM. In turn, `COc1cc(-c2ccc(C(F)(F)F)cc2)nc2cc(C(=O)O)ccc12` [I-181, 4-methoxy-2-(4-(trifluoromethyl)phenyl)quinoline-7-carboxylic acid] displayed a concentration for 50% growth inhibition (GI50) of at most 1000 nM. Regarding `O=C(O)c1ccc2c(c1)nc(-c1ccc(F)cc1)c1cccn12` [I-43, 4-(4-Fluorophenyl)pyrrolo[1,2-a]quinoxaline-7-carboxylic acid], the concentration for 50% growth inhibition (GI50) is over 10000 nM.

In turn, `COc1cc(-c2ccc(C(F)(F)F)cc2)nc2cc(C(=O)NCC(O)C(F)(F)F)ccc12` (stereo not drawn) [I-382, 4-methoxy-N-(3,3,3-trifluoro-2-hydroxypropyl)-2-(4-(trifluoromethyl)phenyl)quinoline-7-carboxamide] displayed a GI50 of 1000 to 5000 nM. `O=C(O)c1ccc2c(c1)nc(N1CCC(F)(F)CC1)c1cccn12` [I-39, 4-(4,4-Difluoropiperidin-1-yl) pyrrolo[1,2-a]quinoxaline-7-carboxylic acid] showed a GI50 of over 10000 nM. `C=CC(=O)Nc1ccc2cc(C)c(-c3ccc(C(C)(C)C)cc3)nc2c1` [I-98, N-(2-(4-(tert-butyl)phenyl)-3-methylquinolin-7-yl)acrylamide]: the GI50 is at most 1000 nM. Compound `CC(C)(C)c1ccc(-c2nc3cc(NC(=O)c4ccccn4)ccc3n3cccc23)cc1` [I-207, N-(4-(4-(tert-butyl)phenyl)pyrrolo[1,2-a]quinoxalin-7-yl)picolinamide] displayed a GI50 of 5000 to 10000 nM. Under `CC(C)(C)c1ccc(-c2cnc3ccc(C#N)cc3n2)cc1` [I-159, 3-(4-(tert-butyl)phenyl)quinoxaline-6-carbonitrile] stands over 10000 nM; under `C=CC(=O)NCc1cn2ccnc2c(Nc2cccc(C(F)(F)F)c2)n1` [I-169, N-((8-((3-(trifluoromethyl)phenyl)amino)imidazo[1,2-a]pyrazin-6-yl)methyl) acrylamide], at most 1000 nM; under `O=C(O)c1ccc2c(c1)nc(-c1ccc(C(F)(F)F)cc1)c1cccn12` [I-42, 4-(4-(Trifluoromethyl)phenyl)pyrrolo[1,2-a]quinoxaline-7-carboxylic acid], at most 1000 nM. `CC(C)(C)c1ccc(-c2nc3cc(C(=O)O)ccc3n3cccc23)c(F)c1` [I-49, 4-(4-(tert-Butyl)-2-fluorophenyl)pyrrolo[1,2-a]quinoxaline-7-carboxylic acid] displayed a GI50 of over 10000 nM.
